# Measured values: patent US5698411A, “Method for determining activity of enzymes in metabolically active whole cells” (priority 1995, dated 1997)
# Numbered stars: 1 amine (or outer) side, 2 acyl side, 3 side chain; on linkers, the order of the positions; unused ones are H or OH. Bridge positions count the residues as written; N and C are the ends. Peptide text beside a SMILES is read from it. I, II: the chains in the order shown. Rhodamine110 = O=C1OC2(c3ccc(N[*:1])cc3Oc3cc(N[*:2])ccc32)c2ccccc21
# Experiments:
# Assay type in all cases: cell-based, human
# [1] = tested on: granulocytes; assay: enzyme activity with fluorogenic substrate, normal granulocytes (Table 3A)
# [2] = tested on: lymphocytes; assay: aberrant enzyme activities in febrile children, lymphocytes (Table 7)
# [3] = tested on: granulocytes; assay: aberrant enzyme activities in febrile children, granulocytes (Table 7)
# [4] = tested on: lymphocytes; assay: enzyme activity with fluorogenic substrate, normal lymphocytes (Table 3A)
# [5] = tested on: monocytes; assay: aberrant enzyme activities in febrile children, monocytes (Table 7)
# [6] = tested on: monocytes; assay: enzyme activity with fluorogenic substrate, normal monocytes (Table 3A)
# [7] = P88 Enteritis, listed as Z-Gly/Pro-M
Structure (SMILES),NORMAL LEUKOCYTE ENZYME ACTIVITY GRANS Mean [1],"aberrant enzyme activity, LYMPHS ([2]; P89 Viral Stomatitis)","aberrant enzyme activity, LYMPHS ([2]; P92 Adenitis)","aberrant enzyme activity, LYMPHS ([2]; P103 Viral Syndrome)","aberrant enzyme activity, GRANS ([3]; P92 Adenitis)","aberrant enzyme activity, GRANS ([3]; P97 Pyelonephritis)","aberrant enzyme activity, GRANS ([3]; P103 Viral Syndrome)",NORMAL LEUKOCYTE ENZYME ACTIVITY LYMPHS Mean [4],"aberrant enzyme activity, MONOS ([5]; P89 Viral Stomatitis)","aberrant enzyme activity, MONOS ([5]; P92 Adenitis)","aberrant enzyme activity, MONOS ([5]; P97 Pyelonephritis)","aberrant enzyme activity, MONOS ([5]; P103 Viral Syndrome)",NORMAL LEUKOCYTE ENZYME ACTIVITY MONOS Mean [6],"aberrant enzyme activity, LYMPHS ([2]; P88 Enteritis)","aberrant enzyme activity, LYMPHS ([2]; P97 Pyelonephritis)","aberrant enzyme activity, GRANS ([3]; P88 Enteritis)","aberrant enzyme activity, GRANS ([3]; P89 Viral Stomatitis)",further results
"O=C(NCC(=O)N1CCC[C@H]1C(=O)Nc1ccc2c(c1)Oc1cc(NC(=O)[C@@H]3CCCN3C(=O)CNC(=O)OCc3ccccc3)ccc1C21OC(=O)c2ccccc21)OCc1ccccc1 [Z-GP-M, (carbobenzyloxycarbonyl-Gly-Pro)2 Rho 110 (modified)]",130.62,- (>0.25 Decrease over normal range),- (>0.25 Decrease over normal range),- (>0.25 Decrease over normal range),- (>0.25 Decrease over normal range),.smallcircle.,.smallcircle.,53.74,.smallcircle.,- (>0.25 Decrease over normal range),.smallcircle.,.smallcircle.,119.81,–,–,–,–,"aberrant enzyme activity, LYMPHS [2, 7]: - (>0.25 Decrease over normal range); aberrant enzyme activity, LYMPHS ([2]; P97 Pyelonephritis, listed as Z-Gly/Pro-M): - (>0.25 Decrease over normal range); aberrant enzyme activity, GRANS [3, 7]: - (>0.25 Decrease over normal range); aberrant enzyme activity, MONOS [5, 7]: - (>0.25 Decrease over normal range)"
"C[C@H](NC(=O)[C@@H](N)CCCCN)C(=O)Nc1ccc2c(c1)Oc1cc(NC(=O)[C@H](C)NC(=O)[C@@H](N)CCCCN)ccc1C21OC(=O)c2ccccc21 [KA-M, (Lys-Ala)2 Rho 110]",–,.smallcircle.,.smallcircle.,.smallcircle.,.smallcircle.,.smallcircle.,.smallcircle.,0.55,–,–,–,–,–,.smallcircle.,.smallcircle.,.smallcircle.,.smallcircle.,"aberrant enzyme activity, LYMPHS ([2]; P95 Viral Syndrome): .smallcircle.; aberrant enzyme activity, LYMPHS ([2]; P96 Viral Syndrome): .smallcircle.; aberrant enzyme activity, LYMPHS ([2]; P99 Viral Syndrome, listed as Lys/Ala-M): + (>0.25 Increase over normal range); aberrant enzyme activity, LYMPHS ([2]; P102 UTI): .smallcircle.; aberrant enzyme activity, GRANS ([3]; P95 Viral Syndrome): .smallcircle.; aberrant enzyme activity, GRANS ([3]; P96 Viral Syndrome): .smallcircle.; aberrant enzyme activity, GRANS ([3]; P99 Viral Syndrome): .smallcircle.; aberrant enzyme activity, GRANS ([3]; P102 UTI): .smallcircle.; aberrant enzyme activity, MONOS ([5]; P88 Enteritis, listed as Lys/Ala-M): - (>0.25 Decrease over normal range); aberrant enzyme activity, MONOS ([5]; P89 Viral Stomatitis, listed as Lys/Ala-M): - (>0.25 Decrease over normal range); aberrant enzyme activity, MONOS ([5]; P92 Adenitis, listed as Lys/Ala-M): - (>0.25 Decrease over normal range); aberrant enzyme activity, MONOS ([5]; P95 Viral Syndrome, listed as Lys/Ala-M): - (>0.25 Decrease over normal range); aberrant enzyme activity, MONOS ([5]; P96 Viral Syndrome, listed as Lys/Ala-M): - (>0.25 Decrease over normal range); aberrant enzyme activity, MONOS ([5]; P97 Pyelonephritis, listed as Lys/Ala-M): - (>0.25 Decrease over normal range); aberrant enzyme activity, MONOS ([5]; P99 Viral Syndrome): .smallcircle.; aberrant enzyme activity, MONOS ([5]; P102 UTI): .smallcircle.; aberrant enzyme activity, MONOS ([5]; P103 Viral Syndrome, listed as Lys/Ala-M): - (>0.25 Decrease over normal range)"
"C[C@H](NC(=O)CNC(=O)[C@H](Cc1ccccc1)NC(=O)CN)C(=O)Nc1ccc2c(c1)Oc1cc(NC(=O)[C@H](C)NC(=O)CNC(=O)[C@H](Cc3ccccc3)NC(=O)CN)ccc1C21OC(=O)c2ccccc21 [GFGA, (Gly-Phe-Gly-Ala)2 Rho 110] (I: H-GFGA / II: H-GFGA; linker I:C-II:C via Rhodamine110)",1.00,.smallcircle.,.smallcircle.,.smallcircle.,.smallcircle.,.smallcircle.,.smallcircle.,0.36,.smallcircle.,.smallcircle.,.smallcircle.,.smallcircle.,1.01,.smallcircle.,.smallcircle.,.smallcircle.,.smallcircle.,"aberrant enzyme activity, MONOS ([5]; P88 Enteritis): .smallcircle."
